# pEC50, pIC50: −log10 of the molar value. “Also recorded” adds a separate entry of the source. Read-outs that look alike come from different tables or passages of the source.
# What was measured:
# control motor neurons = test: RBP localisation by immunofluorescence in control iPSC-derived motor neurons; format: cell-based, human; conditions: vs untreated
# Method: (§1) Cell culture and motor neuron differentiation. IPSCs were maintained with Essential 8 Medium media (Life Technologies) on Geltrex (Life Technologies), and passaged using EDTA (Life Technologies, 0.5 mM). IPSC cultures were kept at 37° C. and 5% carbon dioxide. IPSCs underwent differentiation into spinal cord motor neurons as described in Hall et al, 2017 [12].
# (§2) IPSC were plated to 100% confluency and then differentiated to the neuroepithelium in medium consisting of DMEM/F12 Glutamax, Neurobasal, L-Glutamine, N2 supplement, nonessential amino acids, B27 supplement, β-mercaptoethanol (all from Life Technologies) and insulin (Sigma). The cells underwent a sequential treatment with small molecules, with day 0-7: 1 μM Dorsomorphin (Millipore), 2 μM SB431542 (Tocris Bioscience), and 3.3 μM CHIR99021 (Miltenyi Biotec), day 7-14: 0.5 μM retinoic acid (Sigma) and 1 μM Purmorphamine (Sigma), day 14-18: 0.1 μM Purmorphamine. Following 18 days of neural conversion and patterning, neural precursors were terminally differentiated in 0.1 μM Compound E (Enzo Life Sciences).
# (§3) […] neuroepithelial layer was enzymatically dissociated using dispase (GIBCO, 1 mg ml−1). The neural precursors were dissociated with Accutase (Life Technologies) for final plating onto a 96 well plate (Falcon) coated with polyethylenimine (PEI) (2.2 mg/ml in 0.1M of sodium borate (Sigma) and Geltrex. Following 6 days of terminal differentiation, cells were fixed in 4% paraformaldehyde for immunolabeling.
# (§4) Inhibitor treatment. Motor neuron cultures were treated with 1 μM of ML240 (Sigma; SML1071; CAS:1346527-98-7) for 2 hours, 5 μM of DBeQ for 3 hours or 1 μM of CB-5083 for 3 hours.
# (§5) Immunofluorescence staining. Cells were fixed in 4% paraformaldehyde in PBS for 15 minutes at room temperature (RT). For permeabilization and non-specific antibody blocking, 0.3% Triton-X containing 5% bovine serum albumin (BSA) (Sigma) in PBS was added for 60 minutes. Primary antibodies were made up in 5% BSA and then applied overnight at 4° C. Primary antibodies used were SMI-32 (BioLegend; 801701; mouse; 1:1000), ChAT (Millipore; AB144P; goat; 1:100), βIII-tubulin (abcam; ab41489; chicken; 1:1000), TDP-43 (ProteinTech; 12892-1-AP; rabbit; 1:400), SFPQ (abcam; ab11825; mouse; 1:400), FUS (Santa Cruz; sc-47711; mouse; 1:200), hnRNPA1 (Cell Signaling; 8443S; rabbit; 1:500), hnRNPK (Santa Cruz; sc-28380; mouse; 1:500). A species-specific Alexa Fluor-conjugated secondary antibody (Life Technologies) at 1:1000 dilution in 5% BSA was added for 90 minutes at RT in the dark. Cells were washed once in PBS containing DAPI, 4′,6-diamidino-2-phenylindole nuclear stain (1:1000) for 10 minutes.
# (§6) Image acquisition and analysis. Images were acquired using the Opera Phenix High-Content Screening System (Perkin Elmer). Images were acquired with a 40× objective as confocal z-stacks with a z-step of 1 μm. Stacks were processed to obtain a maximum intensity projection. A minimum of 12 fields of view were taken for each well. To calculate the nuclear:cytoplasmic ratio of RNA-binding proteins (RBPs) in single cells, images were analysed using the Columbus Image Analysis System (Perkin Elmer). A DAPI mask defined the nucleus, and based on nuclear properties a trained machine learning feature selected neurons in an automated fashion. For each individual cell an average nuclear intensity of the RBP of interest was measured. For the cytoplasmic measurement, a 1.5 μm cytoplasmic region was defined around the nucleus within a cytoplasmic mask and an average intensity measured. […] A ratio of the nuclear:cytoplasmic average intensity measurements was calculated per cell. An average of each field was calculated and then averaged across the well.
# (§7) For the nuclear:neurite ratio, we implemented a semi-automated image analysis pipeline combining Ilastik, Cellprofiler and ImageJ.
# VCP mutant motor neurons = test: RBP localisation by immunofluorescence in VCP mutant iPSC-derived motor neurons; format: cell-based, human
# Method: as §1, §2, §3, §4, §5, §6, §7
# [1] = system: control and VCP mutant motor neurons; test: Western blot of TDP-43, FUS and SFPQ protein levels; format: cell-based, human; conditions: 1 μM ML240, 2 hours; whole cells
# Method: Western blot analysis. Protein levels of TDP-43, FUS and SFPQ were assessed in whole cells in control and VCP mutant motor neurons. Cells were subjected to untreated conditions or treatment of 1 μM of ML240 for 2 hours prior to protein extraction. The cells were lysed and proteins were extracted with RIPA disruption. Total protein concentration was quantified using BCA protein assay (Sigma). Equal amounts of protein samples were then loaded onto a gel and separated by SDS PAGE and transferred onto a nitrocellulose membrane. Samples were then blocked with PBS, 0.1% Tween, 5% dry milk powder at RT for one hour followed by primary antibody incubation overnight at 4° C. The following antibodies were diluted in PBS 5% BSA; TDP-43 (ProteinTech; 12892-1-AP; rabbit; 1:1000), SFPQ (Abcam; 11825; mouse; 1:250), FUS (Santa Cruz; sc-47711; mouse; 1:500), GAPDH (GeneTex; GT239; mouse; 1:10000). For detection, membranes were incubated with species-specific near infra-red fluorescent antibodies (IRDye, Licor) at RT for one hour and imaged using an Odyssey Fc Imaging System (Licor).
# [2] = system: TARDBP-mutant (G298S) motor neurons; conditions: 1 μM CB-5083, 3 hours, vs untreated
# Method: Immunofluorescence staining. Cells were fixed in 4% paraformaldehyde in PBS for 15 minutes at room temperature (RT). For permeabilization and non-specific antibody blocking, 0.3% Triton-X containing 5% bovine serum albumin (BSA) (Sigma) in PBS was added for 60 minutes. Primary antibodies were made up in 5% BSA and then applied overnight at 4° C. […]
# Image acquisition and analysis. […] To calculate the nuclear:cytoplasmic ratio of RNA-binding proteins (RBPs) in single cells, images were analysed using the Columbus Image Analysis System (Perkin Elmer). […] For each individual cell an average nuclear intensity of the RBP of interest was measured. For the cytoplasmic measurement, a 1.5 μm cytoplasmic region was defined around the nucleus within a cytoplasmic mask and an average intensity measured. […] A ratio of the nuclear:cytoplasmic average intensity measurements was calculated per cell. An average of each field was calculated and then averaged across the well.
# VCP ATPase = VCP ATPase (Homo sapiens, UniProt P55072); conditions: read-out: Potency of inhibition: IC50 on ATPase in vitro; cited from earlier work
# Ub-G76V = conditions: read-out: Potency of inhibition: EC50 on Ub-G76V in cell culture; cited from earlier work
# [3] = 1 μM ML240, 2 hours, normalised to control untreated
# Chain of VCP ATPase (P55072 whole entry): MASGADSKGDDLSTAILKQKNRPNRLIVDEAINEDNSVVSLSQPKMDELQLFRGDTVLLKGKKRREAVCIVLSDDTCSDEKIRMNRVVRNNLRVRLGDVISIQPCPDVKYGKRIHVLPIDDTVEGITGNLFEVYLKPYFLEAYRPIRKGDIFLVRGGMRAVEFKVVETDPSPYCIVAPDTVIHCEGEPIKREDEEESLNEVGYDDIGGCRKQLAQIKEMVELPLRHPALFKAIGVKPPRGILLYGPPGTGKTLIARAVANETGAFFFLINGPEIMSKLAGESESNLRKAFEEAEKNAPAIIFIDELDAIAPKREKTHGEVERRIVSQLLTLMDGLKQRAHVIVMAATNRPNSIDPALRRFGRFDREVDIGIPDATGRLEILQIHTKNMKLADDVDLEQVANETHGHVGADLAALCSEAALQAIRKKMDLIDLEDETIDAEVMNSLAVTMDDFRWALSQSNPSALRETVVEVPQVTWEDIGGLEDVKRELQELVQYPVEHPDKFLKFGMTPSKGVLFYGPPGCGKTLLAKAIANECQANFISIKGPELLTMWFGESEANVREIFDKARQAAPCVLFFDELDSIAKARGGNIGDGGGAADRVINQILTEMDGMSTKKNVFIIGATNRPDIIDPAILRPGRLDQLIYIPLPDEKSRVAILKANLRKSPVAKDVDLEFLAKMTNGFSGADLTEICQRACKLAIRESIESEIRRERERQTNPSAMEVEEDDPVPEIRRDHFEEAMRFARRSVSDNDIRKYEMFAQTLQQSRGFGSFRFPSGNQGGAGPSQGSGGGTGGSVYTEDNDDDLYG
compound,measurement,setting,value
"COc1cccc2c(NCc3ccccc3)nc(-n3c(N)nc4ccccc43)nc12 [ML240, 2-(2-Amino-1H-benzimidazole-1-yl)-8-methoxy-N-(phenylmethyl)-4-quinazolinamine]",FUS nuclear:cytoplasmic ratio,"control motor neurons; 1 μM ML240, 2 hours",no difference
same,FUS nuclear:neurite ratio,"control motor neurons; 1 μM ML240, 2 hours",small increase
same,SFPQ nuclear:cytoplasmic ratio,"control motor neurons; 1 μM ML240, 2 hours",no difference
same,SFPQ nuclear:neurite ratio,"control motor neurons; 1 μM ML240, 2 hours",no difference
same,TDP-43 nuclear:cytoplasmic ratio (N/C),"control motor neurons; 1 μM ML240, 2 hours",increase
same,TDP-43 nuclear:neurite ratio (Nu/Ne),"control motor neurons; 1 μM ML240, 2 hours",no such increase was observed; also recorded: no difference
same,hnRNPA1 nuclear:cytoplasmic ratio,"control motor neurons; 1 μM ML240, 2 hours",no difference
same,hnRNPK nuclear:cytoplasmic ratio,"control motor neurons; 1 μM ML240, 2 hours",no difference
same,hnRNPA1 nuclear:cytoplasmic ratio,"VCP mutant motor neurons; 1 μM ML240, 2 hours",no change
same,hnRNPK nuclear:cytoplasmic ratio,"VCP mutant motor neurons; 1 μM ML240, 2 hours",no change
same,FUS nuclear:cytoplasmic ratio,VCP mutant motor neurons; [3],robustly reversed the mislocalization; also recorded: increase
same,FUS nuclear:neurite ratio,VCP mutant motor neurons; [3],robustly reversed the mislocalization; also recorded: increase of the nuclear:neurite ratio to control values
same,SFPQ nuclear:neurite ratio,VCP mutant motor neurons; [3],significantly reversed; also recorded: increase
same,TDP-43 nuclear:cytoplasmic ratio (N/C),VCP mutant motor neurons; [3],robustly reversed the mislocalization; also recorded: increased above control values
same,TDP-43 nuclear:neurite ratio (Nu/Ne),VCP mutant motor neurons; [3],robustly reversed the mislocalization; also recorded: increased
same,"FUS overall protein level (Western blot, normalised to GAPDH)",[1],did not change; also recorded: does not change
same,"SFPQ overall protein level (Western blot, normalised to GAPDH)",[1],did not change; also recorded: does not change
same,"TDP-43 overall protein level (Western blot, normalised to GAPDH)",[1],did not change; also recorded: does not change
"Cc1cc2c(C(N)=O)cccc2n1-c1nc2c(c(NCc3ccccc3)n1)COCC2 [CB-5083, 1-[7,8-dihydro-4-[(phenylmethyl)amino]-5H-pyrano[4,3-d]pyrimidin-2-yl]-2-methyl-1H-indole-4-carboxamide]",TDP-43 nuclear:cytoplasmic ratio (N/C),"control motor neurons; 1 μM CB-5083, 3 hours",increase
same,TDP-43 nuclear:cytoplasmic ratio (N/C),"VCP mutant motor neurons; 1 μM CB-5083, 3 hours, vs untreated",able to reverse
same,TDP-43 nuclear:cytoplasmic ratio (N/C),"VCP mutant motor neurons; 1 μM CB-5083, 3 hours, vs untreated, listed as CB5083",increase
same,TDP-43 nuclear:cytoplasmic ratio (N/C),[2],increased
same,TDP-43 nuclear:cytoplasmic ratio (N/C),[2]; listed as CB5083,increase
"c1ccc(CNc2nc(NCc3ccccc3)c3ccccc3n2)cc1 [DBeQ, N2,N4-dibenzylquinazo-line-2,4-diamine]",TDP-43 nuclear:cytoplasmic ratio (N/C),"control motor neurons; 5 μM DBeQ, 3 hours",increased
same,TDP-43 nuclear:cytoplasmic ratio (N/C),"control motor neurons; 5 μM DBeQ, 3 hours, listed as DBEQ",increase
same,TDP-43 nuclear:cytoplasmic ratio (N/C),"VCP mutant motor neurons; 5 μM DBeQ, 3 hours, vs untreated",able to reverse
same,TDP-43 nuclear:cytoplasmic ratio (N/C),"VCP mutant motor neurons; 5 μM DBeQ, 3 hours, vs untreated, listed as DBEQ",increase
same,pIC50,VCP ATPase,5.82
same,pEC50,Ub-G76V,5.59
Cc1cc(OCc2nnc(SC3CCCC3)n2-c2cccnc2)ccc1-c1ccc(S(C)(=O)=O)cc1 [NMS-873],pEC50,Ub-G76V,6.15 to 6.40
"3,4-methylenedioxy-6-nitrostyrene [Syk inhibitor III]",pIC50,VCP ATPase,5.77
same,pEC50,Ub-G76V,5.80
